Consider one compound from publication PMC4780272, “New Concept of the Biosynthesis of 4-Alkyl-L-Proline Precursors of Lincomycin, Hormaomycin, and Pyrrolobenzodiazepines: Could a γ-Glutamyltransferase Cleave the C–C Bond?” (Frontiers in Microbiology, 2016).

This test addresses T1, LmbW (Streptomyces lincolnensis, UniProt A9Y8T3).
T1 construct: gene SLINC_0255; lmbW amplified from LK6 cosmid, cloned in pET42b(+), produced in E. coli BL21(DE3), purified as described for LmbC
T1 sequence (A9Y8T3 1-350): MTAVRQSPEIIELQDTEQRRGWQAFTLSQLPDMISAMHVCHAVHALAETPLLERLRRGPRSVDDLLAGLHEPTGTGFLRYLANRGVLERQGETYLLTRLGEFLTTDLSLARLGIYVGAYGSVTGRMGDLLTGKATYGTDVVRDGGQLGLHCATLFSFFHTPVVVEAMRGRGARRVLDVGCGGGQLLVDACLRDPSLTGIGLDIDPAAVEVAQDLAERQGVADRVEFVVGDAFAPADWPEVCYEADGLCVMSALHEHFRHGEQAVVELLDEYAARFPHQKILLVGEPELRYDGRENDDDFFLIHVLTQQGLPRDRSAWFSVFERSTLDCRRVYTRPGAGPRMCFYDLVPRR
As to the kind of experiment: LC-MS of methylated product. In kind it is biochemical. The settings on record: methyl donor; co-substrate 3 4 mM, S-adenosylmethionine 4 mM, glycine buffer 40 mM pH 9.5, 28°C, 1 h.

In the case of `C[S+](CC[C@H](N)C(=O)O)C[C@H]1O[C@@H](n2cnc3c(N)ncnc32)[C@H](O)[C@@H]1O` (stereo partly shown) [S-adenosylmethionine], the “LC-MS of methylated product” value is “In the reaction with LmbW and S-adenosylmethionine, we identified a product”.
